Assay results reported in patent US20250074901A1, “NOVEL HETEROARYL COMPOUNDS” (ICAGEN, LLC, priority 2021, published 2025).
pEC50: −log10 of the molar value.

Target: T1, Kv7.2 (Homo sapiens, UniProt O43526)
T1 construct: expressed in transfected cells
Assay: Activation of Kv7.2 (in vitro assay, concentration response curve)
Assay type: cell-based
Settings: for Emax: Kv7.2 activation max %; for pEC50: activation of Kv7.2
Outline: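 Agonist activity was measured in vitro across a range of compound concentrations and plotted as a sigmoidal concentration–response curve. EC50 is the concentration giving 50% of that compound's own maximal response (Emax).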

Emax [%]	pEC50	Structure (SMILES)
53	6.30	O=C(NCc1ccnc(OC(F)F)c1)NC1COC(C(F)(F)F)C1 (stereo not drawn) [Example 258, 1-[[2-(difluoromethoxy)pyridin-4-yl]methyl]-3-[5-(trifluoromethyl)oxolan-3-yl]urea]
63	6.62	O=C(Nc1cccc(Cl)c1)NC(CO)c1ccnc(OCC(F)F)c1 (stereo not drawn) [Example 259, 1-(3-chlorophenyl)-3-[1-[2-(2,2-difluoroethoxy)pyridin-4-yl]-2-hydroxyethyl]urea]
51	6.43	O=C(NCc1ccnc(SC(F)F)c1)N[C@H]1C[C@H](C(F)(F)F)C1 [Example 260, 1-[[2-(difluoro-methylsulfanyl)pyridin-4-yl]methyl]-3-[(1r,3r)-3-(trifluoromethyl)cyclobutyl]urea]
40	7.15	Cc1cc(NC(=O)NCc2ccnc(OC(F)F)c2)ccc1F [Example 261, 1-[[2-(difluoromethoxy)pyridin-4-yl]methyl]-3-(4-fluoro-3-methylphenyl)urea]
65	5.45	O=C(NCc1ccnc(OC(F)F)c1)Nc1cccc(OC(F)F)c1 [Example 262, 1-[3-(difluoromethoxy)phenyl]-3-[[2-(difluoromethoxy)pyridin-4-yl]methyl]urea]
49	6.37	O=C(NCc1ccnc(OC(F)F)c1)NC1CCC(OC(F)F)C1 (stereo not drawn) [Example 264, 1-[3-(difluoromethoxy)cyclopentyl]-3-[[2-(difluoromethoxy)pyridin-4-yl]methyl]urea]
47	6.33	O=C(NCc1ccnc(OC(F)F)c1)N[C@H]1C[C@@H](OC(F)F)C1 [Example 265, 1-[(1s,3s)-3-(difluoromethoxy)cyclobutyl]-3-[[2-(difluoromethoxy)pyridin-4-yl]methyl]urea]
49	6.52	O=C(NCc1ccnc(OC(F)F)c1)N[C@H]1CC[C@H](OC(F)F)CC1 [Example 266, 1-[(1r,4r)-4-(difluoromethoxy)cyclohexyl]-3-[[2-(difluoromethoxy)pyridin-4-yl]methyl]urea]
51	6.54	O=C(NCc1ccnc(OC(F)F)c1)NC1CC(OC(F)(F)F)C1 (stereo not drawn) [Example 267, 1-[[2-(difluoromethoxy)pyridin-4-yl]methyl]-3-[3-(trifluoromethoxy)cyclobutyl]urea]
39	5.73	CC(CNC(=O)NCc1ccnc(OC(F)F)c1)OC(F)F (stereo not drawn) [Example 268, 1-[2-(difluoromethoxy)propyl]-3-[[2-(difluoromethoxy)pyridin-4-yl]methyl]urea]
46	6.46	O=C(NCc1ccnc(OCC(F)(F)F)c1)N[C@H]1C[C@@H](F)C1 [Example 269, 1-((1s,3s)-3-fluorocyclobutyl)-3-[[2-(2,2,2-trifluoroethoxy)pyridin-4-yl]methyl]urea]
65	6.77	O=C(Nc1cccc(Cl)c1F)NC(CO)c1ccnc(OC(F)F)c1 (stereo not drawn) [Example 270, 1-(3-chloro-2-fluorophenyl)-3-[1-[2-(difluoromethoxy)pyridin-4-yl]-2-hydroxyethyl]urea]
42	6.47	O=C(NCc1ccnc(OC(F)F)c1)N[C@H]1[C@@H]2CC(F)(F)C[C@@H]21 [Example 271, 1-[[2-(difluoromethoxy)pyridin-4-yl]methyl]-3-[rac-(1R,5S,6R)-3,3-difluoro-6-bicyclo[3.1.0]hexanyl]urea]
44	6.04	O=C(NCc1ccnc(OC(F)F)c1)Nc1ccc(F)c(F)c1F [Example 272, 1-[[2-(difluoromethoxy)pyridin-4-yl]methyl]-3-(2,3,4-trifluorophenyl)urea]
48	6.05	O=C(NCc1ccnc(OC(F)F)c1)N[C@@H](CC(F)(F)F)C(F)(F)F [Example 273, 1-[[2-(difluoromethoxy)pyridin-4-yl]methyl]-3-[(2S)-1,1,1,4,4,4-hexafluorobutan-2-yl]urea]
48	6.44	O=C(NCc1ccnc(CC(F)(F)F)c1)Nc1ccc(F)c(F)c1 [Example 274, 1-(3,4-difluorophenyl)-3-[[2-(2,2,2-trifluoroethyl)pyridin-4-yl]methyl]urea]
59	6.26	O=C(NCc1ccnc(CC(F)(F)F)c1)Nc1cccc(Cl)c1 [Example 275, 1-(3-chlorophenyl)-3-[[2-(2,2,2-trifluoroethyl)pyridin-4-yl]methyl]urea]
58	6.48	O=C(NCc1cc(OC(F)F)ncc1F)N[C@H]1C[C@H](C(F)(F)F)C1 [Example 277, 1-[[2-(difluoromethoxy)-5-fluoropyridin-4-yl]methyl]-3-[(1r,3r)-3-(trifluoromethyl)cyclobutyl]urea]
75	6.77	O=C(NCc1cc(OCC(F)(F)F)ncn1)N[C@H]1C[C@H](C(F)(F)F)C1 [Example 279, 1-[[6-(2,2,2-trifluoroethoxy)pyrimidin-4-yl]methyl]-3-[(1r,3r)-3-(trifluoromethyl)cyclobutyl]urea]
67	6.60	Cc1cccc(NC(=O)NC(CO)c2ccnc(OC(F)F)c2)c1 (stereo not drawn) [Example 280, 1-[1-[2-(difluoromethoxy)pyridin-4-yl]-2-hydroxyethyl]-3-(3-methylphenyl)urea]
59	6.70	COCC(Oc1cc(CNC(=O)N[C@H]2C[C@H](C(F)(F)F)C2)ccn1)C(F)(F)F (stereo partly drawn) [Example 281, 1-[[2-(1,1,1-trifluoro-3-methoxypropan-2-yl)oxypyridin-4-yl]methyl]-3-[3-(trifluoromethyl)cyclobutyl]urea]
78	7.05	O=C(NCc1cc(OC(F)F)ncn1)N[C@H]1C[C@H](C(F)(F)F)C1 [Example 282, 1-[[6-(difluoromethoxy)pyrimidin-4-yl]methyl]-3-[(1r,3r)-3-(trifluoromethyl)cyclobutyl]urea]
68	6.31	O=C(NC(CO)c1ccnc(OCC(F)(F)F)c1)NC12CC(F)(C1)C2 (stereo not drawn) [Example 283, 1-(3-fluoro-1-bicyclo[1.1.1]pentanyl)-3-[2-hydroxy-1-[2-(2,2,2-trifluoroethoxy)pyridin-4-yl]ethyl]urea]
82	6.00	O=C(NCc1ccnc(OCC(F)(F)F)c1)NCC1(C(F)(F)F)CC1 [Example 284, 1-[[2-(2,2,2-trifluoroethoxy)pyridin-4-yl]methyl]-3-[[1-(trifluoromethyl)cyclopropyl]methyl]urea]
87	6.42	O=C(NCc1ccnc(OCC(F)(F)F)c1)NC(C(F)(F)F)C(F)(F)F [Example 285, 1-(1,1,1,3,3,3-hexafluoropropan-2-yl)-3-[[2-(2,2,2-trifluoroethoxy)pyridin-4-yl]methyl]urea]
66	6.26	C[C@@H](O)C(NC(=O)N[C@H]1C[C@H](C(F)(F)F)C1)c1ccnc(OC(F)F)c1 (stereo partly drawn) [Example 286, 1-[(2R)-1-[2-(difluoromethoxy)pyridin-4-yl]-2-hydroxypropyl]-3-[(1r,3r)-3-(trifluoromethyl)cyclobutyl]urea]
96	6.13	C[C@H](O)C(NC(=O)N[C@H]1C[C@H](C(F)(F)F)C1)c1ccnc(OC(F)F)c1 (stereo partly drawn) [Example 287, 1-[(2S)-1-[2-(difluoromethoxy)pyridin-4-yl]-2-hydroxypropyl]-3-[(1r,3r)-3-(trifluoromethyl)cyclobutyl]urea]
